Test results from US8802702B2, “Compounds for reducing drug resistance and uses thereof” (The General Hospital Corporation, priority 2009, dated 2014).
Read-outs that look alike come from different tables or passages of the source.

Experiments:
OVCAR8TR cells = assay: Reversal of drug resistance, cytotoxicity (MTT) assay in OVCAR8TR; format: cell-based, human; conditions: anti-cancer drug alone, no NSC23925, read-out: OVCAR8TR IC50
Experimental: FIGS. 1 (a-b) are graphs that depict the effects of NSC23925 on drug sensitivity in ovarian cancer cells; 1(a) depicts the effects of NSC23925 on sensitive (SKOV-3) and resistant (SKOV-3TR) cells; 1(b) depicts the effects of NSC23925 on sensitive (OVCAR8) and resistant (OVCAR8TR) cells. Cells were treated with the paclitaxel and NSC23925 in RPMI1640 complete media at the indicated concentrations. The relative sensitivity of each line to paclitaxel was determined by MTT assay, as described below in the Examples section, 6 days post treatment. A: Reversal of paclitaxel resistance by NSC23925 in SKOV-3TR cells. B: Reversal of paclitaxel resistance by NSC23925 in OVCAR8TR cells.
(§1) Drug cytotoxicity was assessed in vitro using the MTT assay. SKOV-3 and SKOV-3TR cells were used herein. Briefly, 2×10^3 cells per well were plated in 96-well plates in culture medium (RPMI 1640 supplemented with 10% fetal bovine serum and penicillin/streptomycin) containing increasing concentrations of drug. After 7 days of culture, 10 μl MTT (5 mg/ml in PBS, obtained from Sigma) were added to each well and the plates were incubated for 4 h. The resulting formazan product was dissolved with acid-isopropanol and the absorbance at a wavelength of 490 nm (A490) was read on a SPECTRAmax® Microplate Spectrophotometer (Molecular Devices, Sunnyvale, Calif.). The absorbance values were normalized by assigning the value of the control line in the medium without drug to 1.0 and the value of the no cell control to 0. Experiments were performed in triplicate.

SKOV-3TR cells = assay: Reversal of drug resistance, cytotoxicity (MTT) assay in SKOV-3TR; format: cell-based; conditions: anti-cancer drug alone, no NSC23925, read-out: SKOV-3TR IC50
Experimental: FIGS. 1 (a-b) are graphs that depict the effects of NSC23925 on drug sensitivity in ovarian cancer cells; 1(a) depicts the effects of NSC23925 on sensitive (SKOV-3) and resistant (SKOV-3TR) cells; 1(b) depicts the effects of NSC23925 on sensitive (OVCAR8) and resistant (OVCAR8TR) cells. […] The relative sensitivity of each line to paclitaxel was determined by MTT assay, as described below in the Examples section, 6 days post treatment. […]
as §1, with “After 7 days of culture, 10 μl MTT (5 mg/ml in PBS, obtained from Sigma) were added to each well and the plates were incubated for 4 h.” left out

KHOSR2 cells = assay: Reversal of drug resistance, cytotoxicity assay in KHOSR2; format: cell-based, human; conditions: anti-cancer drug alone, no NSC23925, read-out: KHOSR2 IC50
[1] = background statement; cited from earlier work

| SMILES | IC50 (OVCAR8TR cells; Homo sapiens, 144 h) | IC50 (SKOV-3TR cells; Homo sapiens, SKOV3TR, 144 h) | IC50 (KHOSR2 cells; Homo sapiens) | Reported toxicity / side effects at doses used to modify drug resistance [1] | IC50 (OVCAR8TR cells) | IC50 (SKOV-3TR cells) | IC50 (KHOSR2 cells) |
| --- | --- | --- | --- | --- | --- | --- | --- |
| CC(=O)O[C@H]1C(=O)[C@@]2(C)[C@H]([C@H](OC(=O)c3ccccc3)[C@]3(O)C[C@H](OC(=O)[C@H](O)[C@@H](NC(=O)c4ccccc4)c4ccccc4)C(C)=C1C3(C)C)[C@]1(OC(C)=O)CO[C@@H]1C[C@@H]2O [Paclitaxel, reference compound] | 340 ± 32 nM | 310 ± 21 nM | 210 ± 23 nM |  |  |  |  |
| COc1cccc2c1C(=O)c1c(O)c3c(c(O)c1C2=O)C[C@@](O)(C(=O)CO)C[C@@H]3O[C@H]1C[C@H](N)[C@H](O)[C@H](C)O1 [Doxorubicin, reference compound] | 27620 ± 256 nM | 22340 ± 200 nM | 10300 ± 566 nM |  |  |  |  |
| COc1cc2c(cc1O)CCN[C@]21CS[C@@H]2c3c(OC(C)=O)c(C)c4c(c3[C@H](COC1=O)N1[C@@H]2[C@H]2c3c(cc(C)c(OC)c3O)C[C@@H]([C@@H]1O)N2C)OCO4 [ET-743, reference compound] | 6 ± 2 nM | 4 ± 2 nM | 175 ± 25 nM |  |  |  |  |
| C/C=C/C[C@@H](C)C(=O)[C@H]1C(=O)N[C@@H](C(C)C)C(=O)N(C)CC(=O)N(C)[C@@H](CC(C)C)C(=O)N[C@@H](C(C)C)C(=O)N(C)[C@@H](CC(C)C)C(=O)N[C@@H](C)C(=O)N[C@H](C)C(=O)N(C)[C@@H](CC(C)C)C(=O)N(C)[C@@H](CC(C)C)C(=O)N(C)[C@@H](C(C)C)C(=O)N1C [PSC 833] |  |  |  | cerebellar ataxia and hyperbilirubinemia toxicities |  |  |  |
| COc1c(C)cc2c(c1O)[C@@H]1[C@@H]3Cc4c(OC(C)=O)c(C)c5c(c4[C@H](CNC(=O)/C=C/c4cccc(C(F)(F)F)c4)N3[C@@H](O)[C@H](C2)N1C)OCO5 [PM00104, reference compound] |  |  |  |  | 8 ± 2 nM | 6 ± 1 nM | 143 ± 45 nM |
